Series [1] relates to Rattus norvegicus. As to the kind of experiment: Inhibition of CCK8s-stimulated plasma amylase release in rat assessed as reduction in plasma amylase at 30 umol/kg, po dosed 60 mins before 10 nmol/kg, sc CCK8s challenge and measured after 6 hrs. Format: functional.
Series [2] is filed under the species Homo sapiens. As to the kind of experiment: Ratio of pKi for human CCK-1R to pKi for human CCK-2R.
For series [3], the system named is Rattus norvegicus. Description: Inhibition of iv dosed pentagastrin-stimulated gastric acid secretion in iv dosed anesthetized Ghosh and Schild rat model assessed as decrease in gastric lumen perfusate pH. It counts as functional, Stomach. To be noted: for ED50: Rattus norvegicus, Stomach, iv.
Series [4] deals with T1, Gastrin/cholecystokinin type B receptor (Homo sapiens, UniProt P32239).
T1 sequence (P32239 whole entry): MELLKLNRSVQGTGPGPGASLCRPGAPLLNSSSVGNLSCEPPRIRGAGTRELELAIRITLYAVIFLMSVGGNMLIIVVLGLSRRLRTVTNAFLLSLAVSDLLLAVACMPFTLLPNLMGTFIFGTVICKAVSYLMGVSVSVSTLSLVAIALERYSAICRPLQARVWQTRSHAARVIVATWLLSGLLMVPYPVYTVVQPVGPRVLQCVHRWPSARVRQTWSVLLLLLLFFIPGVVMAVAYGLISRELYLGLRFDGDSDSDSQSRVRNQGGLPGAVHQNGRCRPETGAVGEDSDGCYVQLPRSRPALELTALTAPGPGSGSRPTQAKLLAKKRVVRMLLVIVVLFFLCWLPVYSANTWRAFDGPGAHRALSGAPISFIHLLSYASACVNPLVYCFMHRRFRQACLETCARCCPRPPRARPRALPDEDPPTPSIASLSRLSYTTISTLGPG
As to the kind of experiment: Displacement of [125I]-CCK-8S from human CCK-2R after 100 mins by liquid scintillation counting. Background: Loss of bound radioactivity is the signal in a displacement assay; it reports binding, not function.

Series [5] is described as follows: Metabolic stability in human liver microsomes assessed as compound remaining after 15 mins. It counts as ADME, Microsome. The settings on record: read-out: Stability. In general terms: Liver microsomes are vesicles of endoplasmic reticulum, rich in cytochrome P450 enzymes.
Series [6] in a line: Apparent permeability from basolateral to apical side in human Caco-2 cells. Format: ADME, cell-based.
The nature of series [7]: Apparent permeability from apical to basolateral side in human Caco-2 cells. Format: ADME, cell-based. (Passage across Caco-2 layers is used to estimate intestinal permeability.)
Series [8] is described as follows: Oral bioavailability in rat at 2 umol/kg. Format: ADME, organism-based. The settings on record: in vivo.
The nature of series [9]: Plasma half life in rat at 2 umol/kg, iv. Format: ADME, organism-based.
The nature of series [10]: Volume of distribution at steady state in rat at 2 umol/kg, iv and 2 umol/kg, po. It counts as ADME, organism-based. The settings on record: in vivo, read-out: Vdss.
A short description of series [11]: Plasma clearance in rat at 2 umol/kg, iv. It counts as ADME, organism-based.

Molecules are shown by their SMILES.

By ED50 is commonly meant the dose at which the effect has come halfway, by size or by number of responders. By Ki is commonly meant a measure of affinity in units of concentration, obtained from inhibition or displacement. Read a high Ki as lower affinity. Turning to `O=C(N[C@@H](Cc1ccc(Cl)c(Cl)c1)C(=O)O)c1ccc(I)cc1NS(=O)(=O)c1cccc2nsnc12`, in series [1], the “inhibition (INH)” value was determined as 45%. Further, the Ratio pKi in [2] is 0.9. Further, in series [3], the pED50 worked out at 5.1 and the ED50 came out at 7.9 µmol/kg. In series [4], this compound showed a Ki of 25.1 nM.
For orientation: Papp B→A means the apparent permeability from the basolateral to the apical side of a cell layer. The Papp A→B is how fast a substance crosses the layer from the apical side. In the case of `O=C(N[C@@H](Cc1ccc(Cl)c(Br)c1)C(=O)O)c1ccc(Br)cc1NS(=O)(=O)c1cccc2nsnc12`, in series [5], the remaining at 0.25 h amounted to 61%. The Papp B→A in [6] came out at 0.19 ×10⁻⁶ cm/s. In series [7], the Papp A→B amounted to 0.1 ×10⁻⁶ cm/s. Moreover, in series [2], the Ratio pKi was 1.
Consider `O=C(N[C@@H](Cc1ccc(F)c(Br)c1)C(=O)O)c1ccc(Br)cc1NS(=O)(=O)c1cccc2nsnc12`, for which the remaining at 0.25 h in series [5] amounted to 47%. In addition, the Papp B→A in [6] was found to be 0.34 ×10⁻⁶ cm/s. For the same compound, in series [7], the apparent permeability from apical to basolateral (Papp A→B) was 0.05 ×10⁻⁶ cm/s. Also, the Ratio pKi in series [2] was 1.6.
As a reminder, the bioavailability is dose-corrected exposure relative to a reference, in per cent. A higher bioavailability goes with much systemic uptake. In general, half-life refers to the time needed for the level to fall by half in the phase considered. Low readings indicate rapid decline, high ones slow decline. The term clearance denotes the rate of elimination divided by the concentration. Lower therefore signals a low capacity for elimination. Consider `O=C(N[C@@H](Cc1ccc(F)c(Br)c1)C(=O)O)c1ccc(I)cc1NS(=O)(=O)c1cccc2nsnc12`, for which, in series [8], the bioavailability turned out to be 14%. In [9], this compound showed a half-life of 6.4 h. Besides, the Vd in series [10] is 0.215 L/kg. Also, the Ratio pKi in series [2] stood at 1.5. The same compound returned a clearance in series [11] of 3.1 mL/min/kg.
Take `O=C(N[C@@H](Cc1ccc(F)c(Br)c1)C(=O)O)c1cc(Cl)c(Cl)cc1NS(=O)(=O)c1cccc2nccnc12`: in series [5], the remaining at 0.25 h is 65%. In series [8], the bioavailability was determined as 9%. In series [9], this compound had a half-life of 7 h. Also, the Papp B→A in series [6] was determined as 1.05 ×10⁻⁶ cm/s. Also, the “inhibition (INH)” value in [1] is -5%. Further, in [10], the Vd came out at 0.129 L/kg. In [7], the apical-to-basolateral permeability (Papp A→B) came to 0.1 ×10⁻⁶ cm/s. Moreover, the Ratio pKi in series [2] amounted to 1.4. In series [11], the clearance stood at 2 mL/min/kg.
On to `O=C(N[C@@H](Cc1ccc(Cl)c(Br)c1)C(=O)O)c1ccc(Br)cc1NS(=O)(=O)c1cccc2nccnc12`, for which, in series [5], the remaining at 0.25 h is 69%. In addition, the basolateral-to-apical permeability (Papp B→A) in series [6] amounted to 1.97 ×10⁻⁶ cm/s. In series [1], the “inhibition (INH)” value is on record as 65%. Further, the apparent permeability from apical to basolateral (Papp A→B) in series [7] is 0.1 ×10⁻⁶ cm/s. In addition, in series [2], the Ratio pKi came out at 1.
With `O=C(N[C@@H](Cc1ccc(F)c(Br)c1)C(=O)O)c1ccc(Cl)cc1NS(=O)(=O)c1cccc2nccnc12`, the remaining at 0.25 h in series [5] is 50%. The bioavailability in series [8] came to 4%. The half-life in series [9] is 1.5 h. Further, in [6], the apparent permeability from basolateral to apical (Papp B→A) is 4.76 ×10⁻⁶ cm/s. The Vd in series [10] is 0.145 L/kg. In addition, in series [7], the apical-to-basolateral permeability (Papp A→B) is 0.04 ×10⁻⁶ cm/s. In addition, in series [2], the Ratio pKi came out at 1.6. In [11], this compound yielded a clearance of 4.1 mL/min/kg.
On to `O=C(N[C@@H](Cc1ccc(F)c(Br)c1)C(=O)O)c1cc(Cl)c(Cl)cc1NS(=O)(=O)c1cccc2nsnc12`, for which the remaining at 0.25 h in [5] stood at 76%. For the same compound, in series [8], the bioavailability is 21%. The compound also gave a half-life in [9] of 6.2 h. Further, the Papp B→A in [6] came out at 0.37 ×10⁻⁶ cm/s. Besides, in [1], the “inhibition (INH)” value stood at 67%. Also, the Vd in series [10] turned out to be 0.203 L/kg. For the same compound, the Papp A→B in series [7] turned out to be 0.02 ×10⁻⁶ cm/s. Also, in [3], the pED50 is 5.8 and the ED50 was determined as 1.6 µmol/kg. The clearance in series [11] was 2.6 mL/min/kg.
For the compound `O=C(N[C@@H](Cc1ccc(F)c(Br)c1)C(=O)O)c1ccc(Cl)cc1NS(=O)(=O)c1cccc2nsnc12`, the remaining at 0.25 h in series [5] is 65%. The same compound gave a bioavailability in series [8] of 11%. Further, the half-life in series [9] was 1.3 h. The basolateral-to-apical permeability (Papp B→A) in series [6] came to 1.25 ×10⁻⁶ cm/s. Also, in series [10], the Vd is 0.105 L/kg. In addition, in [7], the Papp A→B stood at 0.04 ×10⁻⁶ cm/s. Further, the Ratio pKi in [2] worked out at 1.4. In series [11], this compound registered a clearance of 3.1 mL/min/kg.
Regarding `O=C(N[C@@H](Cc1ccc(F)c(Br)c1)C(=O)O)c1ccc(Br)cc1NS(=O)(=O)c1cccc2nccnc12`, the remaining at 0.25 h in series [5] worked out at 54%. Besides, the basolateral-to-apical permeability (Papp B→A) in series [6] was 4.36 ×10⁻⁶ cm/s. Moreover, the “inhibition (INH)” value in [1] is 67%. In addition, the Papp A→B in [7] worked out at 0.03 ×10⁻⁶ cm/s. Further, in series [2], the Ratio pKi is 1.8.

Values taken from ChEMBL document CHEMBL1156092, “Anthranilic sulfonamide CCK1/CCK2 dual receptor antagonists II: tuning of receptor selectivity and in vivo efficacy” (Bioorg Med Chem Lett, 2009).
